Laboratory results published in US20110171135A1, “PEST-CONTROL COMPOSITIONS AND METHODS HAVING HIGH TARGET AND LOW NON-TARGET ACTIVITY” (priority 2008, published 2011).

Experiments:
[1] = system: wild-type strain of E. coli; experiment: MIC over successive weeks (resistance development) in E. coli; type: cell-based; conditions: MIC determined weekly and applied, repeated for 4 weeks
Description: Test compositions and conventional pesticides are compared to determine their respective ability to maintain pesticidal effectiveness over successive generations of pest species. For example, a wild-type strain of E. coli is treated with both penicillin (group 1) and a test composition from Table 1 or Table 2 (group 2). MIC (minimum inhibitory concentration; the lowest concentration of an antibacterial that will inhibit the visible growth of a microorganism after overnight incubation) values are determined at 1-week post-treatment for both groups, and the appropriate MIC amount is applied to both test populations. This is repeated for 4 weeks. […] In contrast, the MIC value for group 2 remains static, indicating a lack of resistance development among the group 2 population.

tyramine receptor (TyrR) = biological target: T1, tyramine receptor (TyrR) (Drosophila melanogaster, UniProt P22270); experiment: Tyramine receptor binding with 3H-tyramine in transfected Schneider cells
T1 construct: The open reading frame of the Drosophila tyramine receptor (TyrR) may be amplified via PCR; expressed in transfected cells; host or cells: Drosophila Schneider cells
T1 sequence (P22270 27-601): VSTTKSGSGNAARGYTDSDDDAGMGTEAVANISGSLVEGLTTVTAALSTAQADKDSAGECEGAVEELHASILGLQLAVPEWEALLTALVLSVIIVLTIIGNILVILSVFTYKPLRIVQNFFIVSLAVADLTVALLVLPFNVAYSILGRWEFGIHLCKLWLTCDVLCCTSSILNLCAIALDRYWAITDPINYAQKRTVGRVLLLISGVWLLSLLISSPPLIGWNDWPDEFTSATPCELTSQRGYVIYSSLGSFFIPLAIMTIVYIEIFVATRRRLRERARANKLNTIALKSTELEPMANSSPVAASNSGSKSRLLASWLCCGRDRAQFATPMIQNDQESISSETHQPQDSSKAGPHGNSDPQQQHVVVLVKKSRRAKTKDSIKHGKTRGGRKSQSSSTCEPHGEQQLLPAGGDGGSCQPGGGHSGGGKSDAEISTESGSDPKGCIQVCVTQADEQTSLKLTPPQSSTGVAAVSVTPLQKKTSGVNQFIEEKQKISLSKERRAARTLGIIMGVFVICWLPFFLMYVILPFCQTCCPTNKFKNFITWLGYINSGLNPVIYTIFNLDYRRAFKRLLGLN
From the text: Tyramine receptor may be amplified, for example, from a Drosophila melanogaster head cDNA phage library. Phage DNA may be purified from this library by known methods using a liquid culture lysate. The open reading frame of the Drosophila tyramine receptor (TyrR) may be amplified via PCR, and the PCR product may be digested, and the TyrR open reading frame may be inserted into an expression vector using known methods, and transfected Schneider cell clones may be prepared.
Tyramine receptor binding/uptake may be performed to determine which of the transfected clones have the highest levels of functionally active tyramine receptor protein, and the selected clone may be propagated and stored in liquid nitrogen. Aliquots of the selected clone are grown for whole cell binding and for plasma membrane preparation for kinetic and screening studies.
For binding studies, cells transfected with the tyramine receptor (about 1×10^6 cells/ml) are cultured in each well of a multi-well plate, and binding is assessed using ^3H-tyramine and unlabeled tyramine. […] Saturation binding experiments may be performed to determine Bmax and Kd values for TyrR.

[2] = system: tyramine receptor mutant (TyrRneo30) strains; type: in vivo, Drosophila; conditions: topically applied at LD50 determined against wild type; mortality 24 h after treatment; FIG. 4
Description: LD50 values of tested chemicals (determined against wild type Drosophila) were topically applied against wild type and tyramine receptor mutant (TyrRneo30) strains. Mortality was determined 24 h after treatment. Data are the average of three replicates, 5 flies per replicate. This experiment was repeated five times.

penicillin
course of the MIC value over time (resistance development) [1]: increases over time

NCCc1ccc(O)cc1 [Blend 3H-tyramine, ^3H-tyramine]
3H-tyramine concentration at which maximum specific binding occurs (tyramine receptor (TyrR); cells transfected with the tyramine receptor): about 5 nM

Cc1ccc(C(C)C)cc1O [carvacrol]
effect (mortality) on Drosophila expressing a mutant form of the tyramine receptor [2]: did not affect

NCCc1ccc(O)cc1 [tyramine]
response of untransfected cells to tyramine (tyramine receptor (TyrR); untransfected cells, concentration as high as about 100 μM): do not respond
